The source of these data is PMC4376724, “Differential Phenotypic and Functional Profiles of TcCA-2 -Specific Cytotoxic CD8^+ T Cells in the Asymptomatic versus Cardiac Phase in Chagasic Patients” (PLoS ONE, 2015).

Assay [1] has as its system PBMC from HLA-A*02:01 Chagas disease patients and healthy donors. Description: Granzyme B ELISPOT in PBMC. The conditions noted are these: 30 h, non-peptide control spots subtracted. Format: cell-based, human. As for the experimental part:
For the screening of the recognition of TcCA-2 epitopes by Chagas disease patients, 10 HLA-A*02:01 adult patients in the asymptomatic phase of the disease (IND) were enrolled. For cytotoxicity, functional activity determinations and phenotypic characterization another group of 19 HLA-A*02:01 adults Chagas disease patients and 9 healthy donors were analyzed. These patients were at the chronic stage of the disease and were considered to be at the asymptomatic phase (IND, n = 8) if there was no evidence of having cardiac or gastrointestinal disorders. Chronic Chagas cardiomyopathy patients (CCC, n = 11) were stratified into G1 to G3 stages following Kuschnir classification according to clinical criteria and radiological, electrocardiographic and echocardiography analyses. The number of patients was the one recommended by the Hospital Ethical Committee. […] The patients were enrolled in both studies (functional and phenotypic characterization, IND n = 6 and CCC n = 7) when the available number of purified PBMC (limited by the cellular number isolated from each subject) was enough for both analyses. Another four CCC patients had to be enrolled to perform the phenotypic analysis in order to reach statistical significance.
The frequency of Granzyme B (GzB) producing cells was evaluated by ELISPOT assays using cryopreserved PBMC from Chagas disease patients and healthy donors as control. This protocol was carried out as described in [20]. Briefly, 96-well PVDF membrane-bottom plates (Millipore) were pre-wetted with 35% ethanol and washed five times with PBS. Subsequently, plates were coated with 100 μL of anti-GzB (5 μg/mL) monoclonal antibody (Mabtech) and incubated overnight at 4°C. Plates were washed with PBS and incubated with 200 μL/well of blocking solution (RPMI-1640-10% FCS) at room temperature for 30 minutes. Afterwards, 5 × 10^4 PBMC/well were added and incubated with 1 μM of each peptide for 30 h at 37°C with 5% CO2, in triplicates. As a positive control, the PBMC were stimulated with 50 ng/ml phorbol 12-myristate 13-acetate (PMA, Sigma) and 500 ng/ml ionomycin (Sigma), or 10 μg/mL of phytohaemaglutinin (PHA, Sigma). Supernatants were harvested and aliquoted at -80°C for subsequent cytokine secretion profile determination. After five washes, 100 μL/well of a 1 μg/mL solution of biotinylated GzB-specific antibody (Mabtech) was added in 0.5% iFCS in PBS, and the plates were incubated for 2 h at room temperature. Wells were extensively washed with PBS and incubated with 100 μL/well streptavidin-alkaline phosphatase (Sigma) at dilution of 1:6000 for 1 h at room temperature. After washing (5x) with PBS, 50 μL/well of substrate solution (NBT-BCIP substrate, Sigma) were added. The wells were incubated for 20–30 min at room temperature in the dark. The reaction was stopped by rinsing the plates with cold tap water. The spots were visualized in an AXIO PLAN 2 Imagine microscope and quantified using KS ELISPOT software. The results are expressed as the number of peptide-induced spots forming cell (SFC) x10^6 PBMC after subtracting the spot number of peptide un-stimulated PBMCs (basal response). The results were considered positive when a minimum of 20 SFCx10^6 PBMCs and of at least over twofold basal spot numbers were detected.
The cytotoxic activity of the CD8^+ T cells specific for these four TcCA-2-derived epitopes was evaluated by secretion of GzB through ELISPOT assays. Thus, PBMC from 15 HLA-A*02:01 chagasic patients (8 IND and 7 CCC) and 9 healthy donors were incubated with the peptides under study. A positive GzB response was detected in 3 patients (2 IND and 1 CCC) out of 10 in response to incubation with the TcCA-2_657-666 peptide, 5 patients (3 IND and 2 CCC) out of 14 in response to the TcCA-2_442-451 peptide, 3 patients (3 CCC) out of 14 in response to the TcCA-2_607-615 peptide and 2 patients (2 IND) out of 11 in response to the TcCA-2_273-281 peptide (Table 3). Cytotoxic activities were not detected in any healthy donor. […]

Assay [2] has as its system PBMCs from asymptomatic HLA-A*02:01 Chagas disease patients. Briefly: HLA-A*02:01 restriction assay: peptide-pulsed K562-A2 cells as APC, IFN-γ secretion by patient PBMC. The format is cell-based, human. As to conditions: K562-A2 cells pulsed with 1 mM peptide 1 h, co-cultured 30 h with PBMC of asymptomatic (IND) patients; positive = IFN-γ at least two folds un-stimulated cells.

The mark [3] stands for this setting: PBMC of patient CCC I 456, 1 μM peptide.
The mark [4] stands for this setting: PBMC of patient CCC I 770, 1 μM peptide.
Where [5] appears, read: PBMC of patient CCC I 861, 1 μM peptide.
Where [6] appears, read: PBMC of patient CCC I 884, 1 μM peptide.
Setting [7] is: PBMC of patient CCC II 142, 1 μM peptide.
Setting [8] is: PBMC of patient CCC III 509, 1 μM peptide.
Setting [9] is: PBMC of patient CCC III 797, 1 μM peptide.
[10] abbreviates: PBMC of patient IND 265, 1 μM peptide.
Setting [11] is: PBMC of patient IND 283, 1 μM peptide.
The mark [12] stands for this setting: PBMC of patient IND 365, 1 μM peptide.
The mark [13] stands for this setting: PBMC of patient IND 388, 1 μM peptide.
The mark [14] stands for this setting: PBMC of patient IND 510, 1 μM peptide.
Where [15] appears, read: PBMC of patient IND 535, 1 μM peptide.
[16] abbreviates: PBMC of patient IND 917, 1 μM peptide.
The mark [17] stands for this setting: PBMC of subject HD 001, 1 μM peptide.
Where [18] appears, read: PBMC of subject HD 004, 1 μM peptide.
[19] abbreviates: PBMC of subject HD 005, 1 μM peptide.
[20] abbreviates: PBMC of subject HD 006, 1 μM peptide.
Where [21] appears, read: PBMC of subject HD 008, 1 μM peptide.
[22] abbreviates: PBMC of subject HD 011, 1 μM peptide.
[23] abbreviates: PBMC of subject HD 340, 1 μM peptide.
Setting [24] is: PBMC of subject HD 664, 1 μM peptide.
The mark [25] stands for this setting: PBMC of patient IND 571, 1 μM peptide.

Several values for one entry are separate records, joined by “and”; a condition that tells them apart may be missing. Equal values may be shown once.

For ALRNLRVFL [TcCA-2_607-615], the GzB in assay [1] (setting [3]) is reported as 13 SFC/10^6; in assay [1] (setting [4]), 0 SFC/10^6; in assay [1] (setting [5]) it was -8 SFC/10^6; in assay [1] (setting [6]), 0 SFC/10^6; in assay [1] (setting [7]), 53 SFC/10^6; in assay [1] (setting [8]) it was 25 SFC/10^6. The GzB in assay [1] (setting [9]) is 27 SFC/10^6; in assay [1] (setting [10]), -100 SFC/10^6; in assay [1] (setting [11]), -20 SFC/10^6; in assay [1] (setting [12]), 7 SFC/10^6; in assay [1] (setting [13]) it was 13 SFC/10^6; in assay [1] (setting [14]), 13 SFC/10^6. The GzB is -7 SFC/10^6 in assay [1] (setting [15]); -20 SFC/10^6 in assay [1] (setting [16]); 0 SFC/10^6 in assay [1] (setting [17]); -7 SFC/10^6 in assay [1] (setting [18]); -47 SFC/10^6 in assay [1] (setting [19]); 7 SFC/10^6 in assay [1] (setting [20]). Further, the GzB in assay [1] (setting [21]) was -70 SFC/10^6; in assay [1] (setting [22]), -7 SFC/10^6; in assay [1] (setting [23]) it was 0 SFC/10^6; in assay [1] (setting [24]) it was 0 SFC/10^6. In addition, the “Chagas disease patient: patients with positive response in relation with the total number of patients per assay” value (shortened to “Chagas disease patient: patients … per assay”) in assay [2] is 3 out of 9 and 3/9.
On to AAAGDKLSL [TcCA-2_273-281], for which the GzB in assay [1] (setting [3]) was 13 SFC/10^6; in assay [1] (setting [4]) it was -7 SFC/10^6; in assay [1] (setting [5]), 8 SFC/10^6; in assay [1] (setting [6]) it was 7 SFC/10^6; in assay [1] (setting [8]) it was 0 SFC/10^6; in assay [1] (setting [12]), 7 SFC/10^6. The GzB in assay [1] (setting [13]) is 33 SFC/10^6; in assay [1] (setting [14]) it was -20 SFC/10^6; in assay [1] (setting [15]) it was -27 SFC/10^6; in assay [1] (setting [25]), 67 SFC/10^6; in assay [1] (setting [16]) it was 13 SFC/10^6; in assay [1] (setting [17]) it was 1 SFC/10^6. Besides, the GzB is given as 0 SFC/10^6 in assay [1] (setting [18]); -47 SFC/10^6 in assay [1] (setting [19]); -7 SFC/10^6 in assay [1] (setting [20]); -47 SFC/10^6 in assay [1] (setting [21]); -20 SFC/10^6 in assay [1] (setting [22]); 0 SFC/10^6 in assay [1] (setting [23]). This sequence also returned a GzB in assay [1] (setting [24]) of 0 SFC/10^6. Further, in assay [2], the “Chagas disease patient: patients … per assay” value was 1 out of 10 and 1/10.
As for ALQVTNHRYL [TcCA-2_657-666], the GzB in assay [1] (setting [4]) is recorded as -7 SFC/10^6; in assay [1] (setting [5]) it was 50 SFC/10^6; in assay [1] (setting [6]), 0 SFC/10^6; in assay [1] (setting [8]) it was 0 SFC/10^6; in assay [1] (setting [12]) it was 0 SFC/10^6; in assay [1] (setting [13]) it was 7 SFC/10^6. The GzB in assay [1] (setting [14]) is listed as -7 SFC/10^6; in assay [1] (setting [15]) it was 67 SFC/10^6; in assay [1] (setting [25]) it was 83 SFC/10^6; in assay [1] (setting [16]) it was -10 SFC/10^6; in assay [1] (setting [17]) it was 0 SFC/10^6; in assay [1] (setting [18]) it was -7 SFC/10^6. Besides, the GzB in assay [1] (setting [19]) is -40 SFC/10^6; in assay [1] (setting [20]) it was 0 SFC/10^6; in assay [1] (setting [21]) it was -47 SFC/10^6; in assay [1] (setting [22]), -7 SFC/10^6; in assay [1] (PBMC of subject HD 017, 1 μM peptide), 0 SFC/10^6; in assay [1] (setting [23]), 1 SFC/10^6. The sequence also displayed a GzB in assay [1] (setting [24]) of 0 SFC/10^6. The “Chagas disease patient: patients … per assay” value in assay [2] was “Two out of 9 and 2/9”.
As to TVFDASRSTV [TcCA-2_442-451], the GzB in assay [1] (setting [3]) is given as -7 SFC/10^6; in assay [1] (setting [4]), 13 SFC/10^6; in assay [1] (setting [5]), 0 SFC/10^6; in assay [1] (setting [6]), 7 SFC/10^6; in assay [1] (setting [7]) it was 80 SFC/10^6; in assay [1] (setting [8]) it was 50 SFC/10^6. Moreover, the GzB in assay [1] (setting [9]) is given as 7 SFC/10^6; in assay [1] (setting [10]) it was -13 SFC/10^6; in assay [1] (setting [11]) it was 47 SFC/10^6; in assay [1] (setting [12]), 27 SFC/10^6; in assay [1] (setting [13]) it was 0 SFC/10^6; in assay [1] (setting [14]) it was 0 SFC/10^6. Besides, the GzB in assay [1] (setting [15]) is given as -13 SFC/10^6; in assay [1] (setting [16]), 40 SFC/10^6; in assay [1] (setting [17]), 0 SFC/10^6; in assay [1] (setting [18]), 0 SFC/10^6; in assay [1] (setting [19]), -40 SFC/10^6; in assay [1] (setting [20]), -7 SFC/10^6. Besides, the GzB in assay [1] (setting [21]) was -73 SFC/10^6; in assay [1] (setting [22]), -20 SFC/10^6; in assay [1] (setting [23]), 1 SFC/10^6; in assay [1] (setting [24]), 1 SFC/10^6. Besides, the “Chagas disease patient: patients … per assay” value in assay [2] was 2 out of 10 and 2/10.
